From patent US5714476A, “Process for preparing compositions containing neotrehalose” (Kabushiki Kaisha Hayashibara Seibutsu Kagaku Kenkyujo, priority 1990, dated 1998)

Legend:
[1] = Hygroscopicity and deliquescence; type: physicochemical; conditions: crystal
Excerpt: (§1) The physicochemical properties of neotrehalose were studied with a high-purity crystalline neotrehalose specimen prepared by the method in Experiment 2-1.

7 week-old dd mice = experiment: Acute toxicity, oral, mice; type: in vivo
Excerpt: A crystalline neotrehalose specimen, prepared by the method in Experiment 2-1, was orally administered to 7 week-old dd mice for acute toxicity test.

α-glucosidase = experiment: Action of α-glucosidase; type: biochemical
Excerpt: as §1

trehalase = experiment: Hydrolysis by trehalase; type: biochemical
Excerpt: as §1

[2] = Solubility in water at 25° C.; type: physicochemical; conditions: crystal in the form of anhydride, in 100 g water at 25° C.
Excerpt: as §1

[3] = Acidity of aqueous solution; type: physicochemical
Excerpt: as §1

[4] = Digestion test: oral load test, blood sugar and insulin levels; type: in vivo; conditions: healthy volunteers
Excerpt: In accordance with the method described in H. Atsuji et al., Journal of Clinical Nutrition, Vol.41, Vol.2, pp.200-208 (1972), the load test by orally-administering to healthy volunteers a crystalline neotrehalose specimen prepared by the method in Experiment 2-1 was done, and their blood was sampled at prescribed time intervals and subjected to the measurements of the blood sugar and insulin levels. As control, glucose was used.

Solubility in solvents = type: physicochemical
Excerpt: as §1

Heat of dissolution = type: physicochemical; conditions: crystal
Excerpt: The physicochemical properties of lactoneotrehalose were studied with a high-purity crystalline lactoneotrehalose specimen prepared by the method in Experiment 1-1.

β-glucosidase = experiment: Action of β-glucosidase; type: biochemical
β-galactosidase = experiment: Action of β-galactosidase; type: biochemical

In the case of `OC[C@H]1O[C@@H](O[C@H]2O[C@H](CO)[C@@H](O)[C@H](O)[C@H]2O)[C@H](O)[C@@H](O)[C@@H]1O` [neotrehalose, O-α-D-glucopyranosyl β-D-glucopyranoside], the hygroscopicity and deliquescence [1] is reported as “Free of hygroscopicity and deliquescence”, the toxicity (7 week-old dd mice) is reported as “extremely low” and the animal death (7 week-old dd mice; up to 5 g of the specimen, higher dose was difficult to do) is reported as “no animal death was noted”. The “product formed by the action of α-glucosidase” value (α-glucosidase) was “D-glucose is formed”, the hydrolysis by trehalase (trehalase) was “not hydrolyzed by trehalase” and the Solubility [2] was “Fifty-five”. The “acidity of an aqueous solution of the crystal” value [3] was “neutral or slight acidity”, the “digestion, absorption, metabolism and utilization” value [4] was “readily digested, absorbed, metabolized and utilized into energy” and the “time of maximum level of blood sugar after the administration” value [4] was 0.5 to 1 h. For the same compound, the “time of maximum level of insulin after the administration” value [4] was 0.5 to 1 h, the “blood sugar and insulin behaviour compared with glucose” value ([4]; control glucose) was “behaved similarly as to glucose” and the Solubility in solvents (Solubility in solvents; 0.1N hydrochloric acid) was “Readily soluble”. The Solubility in solvents (Solubility in solvents; 0.1N sodium hydroxide) was “Readily soluble”, the Solubility in solvents (Solubility in solvents; chloroform) was “insoluble” and the Solubility in solvents (Solubility in solvents; ethanol) was “scarcely soluble”. For the same compound, the Solubility in solvents (Solubility in solvents; ethyl acetate) was “insoluble”, the Solubility in solvents (Solubility in solvents; methanol) was “scarcely soluble” and the Solubility in solvents (Solubility in solvents; water) was “Readily soluble”.

For `OC[C@H]1O[C@@H](O[C@H]2[C@H](O)[C@@H](O)[C@H](O[C@H]3O[C@H](CO)[C@@H](O)[C@H](O)[C@H]3O)O[C@@H]2CO)[C@H](O)[C@@H](O)[C@H]1O` [lactoneotrehalose, O-β-D-galactopyranosyl-(1→4)-O-β-D-glucopyranosyl α-D-glucopyranoside], the hygroscopicity and deliquescence [1] was “Free of hygroscopicity and deliquescence”, the Heat of dissolution (Heat of dissolution) was 20.0 cal/g and the “products formed by the action of β-glucosidase” value (β-glucosidase) was “D-glucose and lactose are formed”. For the same compound, the “acidity of an aqueous solution of the crystal” value [3] was “neutral or slight acidity” and the “products formed by the action of β-galactosidase” value (β-galactosidase) was “D-galactose and neotrehalose are formed”.
